Results published in patent US5480645A, “Hydroxyamines N-acyl derivatives having scavenger activity and useful in acute and chronic pathologies associated with peroxidation and inflammation phenomena” (LifeGroup S.p.A., priority 1992, dated 1996).
Read-outs that look alike come from different tables or passages of the source. Where no end group is shown, it is not given here.

Assays:
[1] = test system: granular cerebellar cells; assay: Protection against 2 mM glutamate cytotoxicity in immature granular cerebellar cell cultures
Solubility = assay type: physicochemical; conditions: for solubility: organic solvent or mixture, read-out: solubility in org. solv.
C6 glioma cells = assay: Protection against 5 mM glutamate cytotoxicity in glioma C6 cultures
[2] = test system: rat liver microsomes (membrane phospholipid peroxidation); assay: Antiperoxidative activity on rat liver microsomes, NADPH/Fe+2/ADP induced peroxidation (MDA formation); assay type: biochemical
Experimental: Before the final resuspension mitochondria ape washed with 0.125M KCl containing 15 mM Hepes/10 mM tris at pH=7.4. Rat liver microsomes are prepared as described by Ernster and Nordenbrand (Ernster, Nordenbrand K. Methods Enzymol. 1967, 10:574-80). […]
b) 20 mM Hepes-Tris buffer pH=7.4, 0.5 mM cumene hydroperoxide in the presence or in the absence of the compounds to be tested. The trials after incubation are interrupted with 1 ml 35% TCA which 30 mg BHT and 1 ml 1% TBA (thiobarbituric acid) have been added to. Subsequently the incubation is carried out for 15' at 90° C. in order to allow the development of the coloured adduct.
(§1) A common oxidation product, malonyldialdehyde (MDA), to the two oxidant systems described in (a) and in (b), is measured.
The formed MDA is evaluated by spectrophotometry at 532 nm and calculated by using a molar extinction coefficient of 156.000 (Buege J. A. and Aust S. D., Methods Enzymol., 52, 302-310, 1978).
The tested compounds are solubilized in the culture medium up to the desired concentrations (see tables 1-3). […]
The antiperoxidase activity is measured as % of inhibition of malonyldialdehyde formation.

mast cells = assay: In vivo antidegranulating activity in rat mast cells (substance P induced); design: species or system Sprague Dawley rats
Experimental: 1. In vivo antidegranulating activity in rat mast cells.
The pharmacological treatment is preceded (20 min. before) by the degranulating stimulus induced by P substance (10^-6 M) injected in the auricular pinna. After 20 minutes from the degranulating stimulus, the animals are sacrificed. Their tissues are then taken (auricular pavilion) for the morphological aspect analysis of the mast cells residing in the connective tissues after fixation and coloration with toluidine blue.
The inhibition level of the mast cells degranulation in the animal tissue treated with the tested compounds in comparison with the animals treated only with the degranulating agent is considered as the parameter of the biological activity.
*the inhibition percentage is calculated considering that the effect of
the substance P is maximum (100% of mast cells degranulation).

[3] = test system: rat liver microsomes (membrane phospholipid peroxidation); assay: Antiperoxidative activity on rat liver microsomes, cumene hydroperoxide induced peroxidation (MDA formation); assay type: biochemical; conditions: 0.5 mM cumene hydroperoxyde, Table 3; for MDA: control 12.8
Experimental: b) 20 mM Hepes-Tris buffer pH=7.4, 0.5 mM cumene hydroperoxide in the presence or in the absence of the compounds to be tested. […] Subsequently the incubation is carried out for 15' at 90° C. in order to allow the development of the coloured adduct.
as §1
The tested compounds are solubilized in the culture medium up to the desired concentrations (see tables 1-3).
As peroxidant agent 0.5 mM cumene hydroperoxyde is used. As oxidation index the formation of malonyldialdehyde (MDA) is measured (nmoles/mg protein).

[4] = test system: rat cerebellar granular cells; assay: Protection against glutamate neurotoxicity in rat cerebellar granular cell cultures; assay type: cell-based; conditions: glutamate alone, 50 μM; Table 4; control 100; 1440 min
Experimental: Primary cerebellar granular cell cultures are prepared from 8 days old Sprague-Dawly rats. Neurons are grown on 35 mm plates for 7-8 days. […] Glial cells proliferation is prevented by cytosine arabinose-furanoside.
Cells are washed in Locke solution free from Mg^2+ then replated in the conditionned culture medium.
The solution is diluted serially up to 10, 20 and 50 μM. The compounds at the desired concentrations are added to the cells at 37 ° C.; after 15' 50 μM glutamate free from Mg^2+ is added For 15 minutes at 22 ° C.
The cells are then washed 3 times with Locke solution, then added to the original culture medium and maintained at 37 ° C. in 5 % CO2 for 24 hours.
The cellular survival is measured by using a fluorescence microscope.

[5] = Mus musculus, 24 h, read-out: % Cellular survival
[6] = Rattus norvegicus, C6 glioma, 24 h, read-out: % Cell survival
[7] = 40 μM, preincubation time 0 minutes, ADP/NADPH/Fe, Table 2
[8] = 40 μM, preincubation time 15 minutes, ADP/NADPH/Fe, Table 2
[9] = 40 μM, preincubation time 30 minutes, ADP/NADPH/Fe, Table 2
[10] = 40 μM, preincubation time 45 minutes, ADP/NADPH/Fe, Table 2
[11] = 40 μM, preincubation time 60 minutes, ADP/NADPH/Fe, Table 2
[12] = 10 μM, NADPH/Fe+2/ATP, Table 1-A
[13] = 10 μM, NADPH/Fe+2/ATP, Table 1-A, control 42.5
[14] = 20 μM, NADPH/Fe+2/ATP, Table 1-A
[15] = 20 μM, NADPH/Fe+2/ATP, Table 1-A, control 42.5

`Cc1c(C)c2c(c(C)c1O)CC(CC(=O)NCCCO)O2` (centres unmarked) [Example 5, N-[2-(2,3-dihydro-5-hydroxy-4,6,7-trimethylbenzofuran)-acetyl]-propanolamine] gave a viability at 1 µM [1, 5] of 52%, a viability at 10 µM [1, 5] of 83% and a viability at 30 µM [1, 5] of 86%. The solubility (Solubility; in ethanol, DMSO, chloroform) was > 10000 µg/mL, the water solubility (Solubility) was “slightly soluble” and the viability at 1 µM (C6 glioma cells; [6]) was 8%. For the same molecule, the viability at 3 µM (C6 glioma cells; [6]) was 66%, the viability at 10 µM (C6 glioma cells; [6]) was 91% and the “peroxidation inhibition” value ([2]; 10 μM, Table 1-B, second series) was 24.0 ± 1.0%. For the same molecule, the MDA ([2]; 10 μM, Table 1-B, second series (control 42.50 ± 2.4)) was 32.32 ± 0.4 nmoles/mg/protein, the “peroxidation inhibition” value ([2]; 20 μM, Table 1-B, second series) was 58.0 ± 7.0% and the MDA ([2]; 20 μM, Table 1-B, second series (control 42.50 ± 2.4)) was 17.87 ± 2.9 nmoles/mg/protein. The “peroxidation inhibition” value ([2]; 40 μM, Table 1-B, second series) was 94.0 ± 3.0%, the MDA ([2]; 40 μM, Table 1-B, second series (control 42.50 ± 2.4)) was 2.57 ± 1.3 nmoles/mg/protein and the “peroxidation inhibition” value ([2]; 60 μM, Table 1-B, second series) was 95.0 ± 3.0%. For the same molecule, the MDA ([2]; 60 μM, Table 1-B, second series (control 42.50 ± 2.4)) was 2.10 ± 1.2 nmoles/mg/protein, the “peroxidation inhibition” value ([2]; 80 μM, Table 1-B, second series) was 94.0 ± 3.0% and the MDA ([2]; 80 μM, Table 1-B, second series (control 42.50 ± 2.4)) was 2.54 ± 1.3 nmoles/mg/protein.

For `Cc1c(C)c2c(c(C)c1OC(=O)CCC(=O)NCCO)CCC(C)(CCCC(C)CCCC(C)CCCC(C)C)O2` [Example 2, D-α-tocopherol acid succinate 2-hydroxyethylamide], the solubility (Solubility; in ethanol and chloroform) was > 10000 µg/mL, the water solubility (Solubility) was “slightly soluble” and the viability at 10 µM (C6 glioma cells; [6]) was 10%. For the same molecule, the viability at 30 µM (C6 glioma cells; [6]) was 80%, the “inhibition % (mast cells degranulation induced by substance P)” value (mast cells; s.c. 20 mg/kg, substance P 10^-6 M in auricular pinna, substance P effect taken as 100% degranulation) was 38.5% and the peroxidation inhibition [2, 7] was 1.40%. For the same molecule, the peroxidation inhibition [2, 8] was 17.30%, the peroxidation inhibition [2, 9] was 29.50% and the peroxidation inhibition [2, 10] was 37.90%. For the same molecule, the peroxidation inhibition [2, 11] was 40.90%.

`CC(=O)Oc1c(C)c(C)c2c(c1C)CCC(C)(CCC[C@H](C)CCC[C@H](C)CCCC(C)C)O2` (some centres unmarked) [Vit. E acetate, reference compound] gave a peroxidation inhibition ([3]; 20 μM) of 0%, an MDA ([3]; 20 μM) of 14.29 nmoles/mg prot and a peroxidation inhibition ([3]; 50 μM) of 0%. For the same molecule, the MDA ([3]; 50 μM) was 11.57 nmoles/mg prot, the peroxidation inhibition [2, 12] was 0% and the MDA [2, 13] was 51.08 nmoles/mg prot. For the same molecule, the peroxidation inhibition [2, 14] was 0%, the MDA [2, 15] was 49.34 nmoles/mg prot and the peroxidation inhibition [2, 7] was 1.90%. It also gave a peroxidation inhibition [2, 8] of 18.20%, a peroxidation inhibition [2, 9] of 28.95% and a peroxidation inhibition [2, 10] of 35.80%. For the same molecule, the peroxidation inhibition [2, 11] was 40.35% and the “inhibition of the peroxidation induced by NADPH/Fe+2/ADP (in words)” value ([2]; in vitro, 10 to 50 μM dose/effect relationship for the test compound) was “inactive in the in-vitro systems”.

In the case of “substance P: degranulating stimulus injected in the auricular pinna (RPKPQQFFGLM; ends and bridges not checked; UniProt P20366 58-68, looked up) [reference compound]”, the mast cells degranulation (mast cells; induced by substance P, of the numbered mast cells) was 85-95%.

For `N[C@@H](CCC(=O)O)C(=O)O` [Glutamate, reference compound], the cell death ([1]; 2 mM glutamate for 24 hours, immature granular cerebellar cells) was 60+70%, the “% Cellular survival” value ([1]; glutamate alone, 2 mM, 24 hours, Table 6) was 30% and the cell survival [4] was 3%. The cellular degeneration (C6 glioma cells; 5 mM glutamate for 24 hours) was 90% and the “% Cell survival” value (C6 glioma cells; glutamate alone, 5 mM, 24 hours, Table 5) was 7%.

For `Cc1c(C)c2c(c(C)c1O)CC(CC(=O)O)O2` (centres unmarked) [5-hydroxy-4,6,7-trimethyl-2,3-dihydrobenzofuran-2-acetic acid, reference compound], the peroxidation inhibition ([3]; 20 μM) was 28%, the MDA ([3]; 20 μM) was 9.25 nmoles/mg prot and the peroxidation inhibition ([3]; 50 μM) was 42%. For the same molecule, the MDA ([3]; 50 μM) was 7.5 nmoles/mg prot, the peroxidation inhibition [2, 12] was 0% and the MDA [2, 13] was 44.19 nmoles/mg prot. The peroxidation inhibition [2, 14] was 12% and the MDA [2, 15] was 37.3 nmoles/mg prot.

For `Cc1c(C)c2c(c(C)c1O)CCC(C)(C(=O)O)O2` (centres unmarked) [6-hydroxy-2,5,7,8-tetramethylchroman-2-carboxylic acid, reference compound], the viability at 10 µM [1, 5] was 43%, the viability at 50 µM [1, 5] was 54% and the viability at 100 µM [1, 5] was 84%. For the same molecule, the viability at 10 µM (C6 glioma cells; [6]) was 7%, the viability at 30 µM (C6 glioma cells; [6]) was 37% and the viability at 100 µM (C6 glioma cells; [6]) was 94%.

For `Cc1c(C)c2c(c(C)c1O)CCC(C)(C(=O)NCCCO)O2` (centres unmarked) [Example 4, N-(6-hydroxy-2,5,7,8-tetramethylchroman-2-carboxyl)-propanolamine], the viability at 1 µM [1, 5] was 39%, the viability at 3 µM [1, 5] was 60% and the viability at 10 µM [1, 5] was 77%. For the same molecule, the solubility (Solubility; in ethanol, DMSO, chloroform) was > 10000 µg/mL, the water solubility (Solubility) was “slightly soluble” and the viability at 1 µM (C6 glioma cells; [6]) was 10%. For the same molecule, the viability at 3 µM (C6 glioma cells; [6]) was 94%, the viability at 10 µM (C6 glioma cells; [6]) was 90% and the “peroxidation inhibition” value ([2]; 10 μM, Table 1-B, first series) was 37%. The MDA ([2]; 10 μM, Table 1-B, first series (control 46.27)) was 28.96 nmoles/mg/protein, the “peroxidation inhibition” value ([2]; 20 μM, Table 1-B, first series) was 95.5% and the MDA ([2]; 20 μM, Table 1-B, first series (control 46.27)) was 1.61 nmoles/mg/protein. The “peroxidation inhibition” value ([2]; 40 μM, Table 1-B, first series) was 97.7%, the MDA ([2]; 40 μM, Table 1-B, first series (control 46.27)) was 1.07 nmoles/mg/protein and the “peroxidation inhibition” value ([2]; 60 μM, Table 1-B, first series) was 97.7%. The MDA ([2]; 60 μM, Table 1-B, first series (control 46.27)) was 1.04 nmoles/mg/protein, the “peroxidation inhibition” value ([2]; 80 μM, Table 1-B, first series) was 97.7% and the MDA ([2]; 80 μM, Table 1-B, first series (control 46.27)) was 1.07 nmoles/mg/protein. For the same molecule, the “peroxidation inhibition” value ([2]; 100 μM, Table 1-B, first series) was 99.3% and the MDA ([2]; 100 μM, Table 1-B, first series (control 46.27)) was 0.30 nmoles/mg/protein.

For `CC(=O)OCCNC(=O)C1(C)CCc2c(C)c(OC(C)=O)c(C)c(C)c2O1` (centres unmarked) [Example 3, 6-acetoxy-2,5,7,8-tetramethyl-chroman-2-(2-acetoxyethyl)-carboxyamide], the viability at 1 µM [1, 5] was 49%, the viability at 10 µM [1, 5] was 60% and the viability at 30 µM [1, 5] was 77%. The solubility (Solubility; in ethanol) was > 10000 µg/mL, the water solubility (Solubility) was “slightly soluble” and the viability at 1 µM (C6 glioma cells; [6]) was 17%. The viability at 3 µM (C6 glioma cells; [6]) was 40%, the viability at 10 µM (C6 glioma cells; [6]) was 82% and the “peroxidation inhibition” value ([2]; 2.5 μM, Table 1-B, third series) was 23.1%. For the same molecule, the MDA ([2]; 2.5 μM, Table 1-B, third series (control 37.4)) was 28.8 nmoles/mg/protein, the “peroxidation inhibition” value ([2]; 5 μM, Table 1-B, third series) was 41.6% and the MDA ([2]; 5 μM, Table 1-B, third series (control 37.4)) was 21.8 nmoles/mg/protein. The “peroxidation inhibition” value ([2]; 10 μM, Table 1-B, third series) was 53.8%, the MDA ([2]; 10 μM, Table 1-B, third series (control 37.4)) was 17.2 nmoles/mg/protein and the “peroxidation inhibition” value ([2]; 20 μM, Table 1-B, third series) was 62.1%. For the same molecule, the MDA ([2]; 20 μM, Table 1-B, third series (control 37.4)) was 14.1 nmoles/mg/protein.
